From patent US7723364B2, “N-[2-(2-pyridinyl) ethyl]benzamide compounds and their use as fungicides” (Bayer Cropscience SA, priority 2003, dated 2010)

Key:
[1] = test system: Alternaria brassicae; assay: In vivo test on Alternaria brassicae (leaf spot of crucifers) on radish plants; conditions: Alternaria brassicae; dose of 330 ppm; radish plants sprayed 24 hours before contamination; grading 6 to 7 days after contamination vs control plants; read-out: good (at least 50%) or total protection
Method: In Vivo Test on Alternaria brassicae (Leaf Spot of Crucifers)
(§1) The active ingredient tested is prepared by potter homogenisation in a concentrated suspension type formulation at 100 g/l. This suspension is then diluted with water to obtain the desired active material concentration.
Radish plants (Pernot variety) in starter cups, sown on a 50/50 peat soil-pozzolana substrate and grown at 18-20° C., are treated at the cotyledon stage by spraying with the aqueous suspension described above.
Plants, used as controls, are treated with an aqueous solution not containing the active material.
After 24 hours, the plants are contaminated by spraying them with an aqueous suspension of Alternaria brassicae spores (40,000 spores per cm^3). The spores are collected from a 12 to 13 days-old culture.
The contaminated radish plants are incubated for 6-7 days at about 18° C., under a humid atmosphere.
Grading is carried out 6 to 7 days after the contamination, in comparison with the control plants.

[2] = test system: Pyrenophora teres; assay: In vivo test on Pyrenophora teres (barley net blotch); conditions: 288 h, dose of 330 ppm, barley plants sprayed 24 hours before contamination, grading 12 days after contamination vs control plants, read-out: good (at least 50%) or total protection
Method: In Vivo Test on Pyrenophora teres (Barley Net Blotch)
as §1
(§2) Barley plants (Express variety) in starter cups, sown on a 50/50 peat soil-pozzolana substrate and grown at 12° C., are treated at the 1-leaf stage (10 cm tall) by spraying with the aqueous suspension described above. Plants, used as controls, are treated with an aqueous solution not containing the active material.
After 24 hours, the plants are contaminated by spraying them with an aqueous suspension of Pyrenophora teres spores (12,000 spores per ml). The spores are collected from a 12-day-old culture. The contaminated barley plants are incubated for 24 hours at about 20° C. and at 100% relative humidity, and then for 12 days at 80% relative humidity.

[3] = test system: Botrytis cinerea; assay: In vivo test on Botrytis cinerea (cucumber grey mould); conditions: for effectiveness on Botrytis cinerea: comparison compounds of WO 01/11965, 330 ppm; for pest or weed control at 330 ppm: Botrytis cinerea, dose of 330 ppm, cucumber plants sprayed 24 hours before contamination, grading 5/7 days after contamination vs control plants, read-out: good (at least 50%) or total protection
Method: In Vivo Test on Botrytis cinerea (Cucumber Grey Mould)
as §1
as §2, with “Cucumber” for “Barley”, “(Marketer” for “(Express”, “18-20°” for “12°”, “cotyledon Z11” for “1-leaf”, “stage” for “stage (10 cm tall)”
After 24 hours, the plants are contaminated by depositing drops of an aqueous suspension of Botrytis cinerea spores (150,000 spores per ml) on upper surface of the leaves. The spores are collected from a 15-day-old culture and are suspended in a nutrient solution composed of:
The contaminated cucumber plants are settled for 5/7 days in a climatic room at 15-11° C. (day/night) and at 80% relative humidity.
Grading is carried out 5/7 days after the contamination, in comparison with the control plants. Under these conditions, good (at least 50%) or total protection is observed at a dose of 330 ppm with the following compounds: 1, 2, 3, 4, 5, 6, 9, 10, 13, 18, 21, 22, 23, 25, 26, 27, 28, 29, 32, 34, 35, 38, 40, 43, 44, 45, 46, 47, 50, 51, 52, 53, 57 and 62.

Structure (SMILES)	pest or weed control at 330 ppm [1]	pest or weed control at 330 ppm [2]	effectiveness on Botrytis cinerea [3]	pest or weed control at 330 ppm [3]
CC(CNC(=O)c1ccccc1I)c1ncc(Cl)cc1Cl (centres unmarked) [Compound 61]	≥ 50%	≥ 50%	–	–
CNC(=O)C(Cc1ncc(C(F)(F)F)cc1Cl)NC(=O)c1ccc(OC)cc1 (centres unmarked) [compound 315, N-{1-methylcarbamoyl-2-[3-chloro-5-(trifluoromethyl)-2-pyridinyl]ethyl}-4-methoxybenzamide, reference compound]	–	–	zero effectiveness	–
O=C(NCCc1nc(F)c(Cl)cc1Cl)c1ccccc1Br [Compound 58]	≥ 50%	≥ 50%	–	–
CCNC(=O)C(Cc1ncc(C(F)(F)F)cc1Cl)NC(=O)c1ccccc1Br (centres unmarked) [compound 310, N-{1-ethylcarbamoyl-2-[3-chloro-5-(trifluoromethyl)-2-pyridinyl]ethyl}-2-bromobenzamide, reference compound]	–	–	zero effectiveness	–
O=C(NCCc1nc(F)c(Cl)cc1Cl)c1ccccc1Cl [Compound 59]	≥ 50%	≥ 50%	–	–
Cc1ccccc1C(=O)NCCc1nc(F)c(F)c(C)c1F [Compound 49]	≥ 50%	≥ 50%	–	–
CC(CNC(=O)c1ccccc1I)c1ccc(Cl)cn1 (centres unmarked) [Compound 65]	–	≥ 50%	–	–
Cc1ccc(CCNC(=O)c2ccccc2I)nc1 [Compound 14, N-[2-(5-methyl-2-pyridinyl)ethyl]-2-(iodo)benzamide]	≥ 50%	–	–	–
CNC(=O)C(Cc1ncc(C(F)(F)F)cc1Cl)NC(=O)c1ccccc1 (centres unmarked) [compound 314, N-{1-methylcarbamoyl-2-[3-chloro-5-(trifluoromethyl)-2-pyridinyl]ethyl}-benzamide, reference compound]	–	–	zero effectiveness	–
Cc1ccc(Cl)c(CCNC(=O)c2ccccc2C(F)(F)F)n1 [Compound 56]	≥ 50%	≥ 50%	–	–
O=C(NCCc1nc(F)c(F)cc1F)c1ccccc1Cl [Compound 48]	–	≥ 50%	–	–
O=C(NCCc1ncc(Cl)cc1F)c1ccccc1C(F)F [Compound 29]	–	–	–	≥ 50%
O=C(NCCc1nc(Cl)c(Cl)cc1Cl)c1ccccc1C(F)(F)F [Compound 23]	–	–	–	≥ 50%
O=C(NCCc1nc(Cl)ccc1Cl)c1ccccc1Br [Compound 37]	≥ 50%	≥ 50%	–	–
Cc1c(F)c(F)nc(CCNC(=O)c2ccccc2C(F)(F)F)c1F [Compound 42]	–	≥ 50%	–	–
O=C(NCCc1nc(Cl)c(Cl)cc1Cl)c1ccccc1I [Compound 22]	–	–	–	≥ 50%
O=C(NCCc1nc(Cl)ccc1Cl)c1ccccc1I [Compound 36]	≥ 50%	≥ 50%	–	–
CCNC(=O)C(Cc1ncc(C(F)(F)F)cc1Cl)NC(=O)c1ccccc1 (centres unmarked) [compound 304, N-{1-ethylcarbamoyl-2-[3-chloro-5-(trifluoromethyl)-2-pyridinyl]-ethyl}-benzamide, reference compound]	–	–	zero effectiveness	–
O=C(NCCc1nc(F)c(Cl)cc1F)c1ccccc1I [Compound 63]	≥ 50%	≥ 50%	–	–
CC(CNC(=O)c1ccccc1C(F)(F)F)c1ncc(Cl)cc1Cl (centres unmarked) [Compound 60]	≥ 50%	≥ 50%	–	–
O=C(NCCc1ccc(Cl)cn1)c1ccccc1C(F)(F)F [Compound 20]	≥ 50%	–	–	–
O=C(NCCc1nc(Cl)ccc1Cl)c1ccccc1C(F)F [Compound 41]	≥ 50%	≥ 50%	–	–
O=C(NCCc1ccc(Cl)cn1)c1ccccc1I [Compound 24]	≥ 50%	–	–	–
O=C(NCCc1ccc(Cl)cn1)c1ccccc1Br [Compound 39]	–	≥ 50%	–	–
CC(CNC(=O)c1cc(F)ccc1Cl)c1ccc(Cl)cn1 (centres unmarked) [Compound 7]	≥ 50%	–	–	–
